# Literature values as cited in patent publication US5948887A, “Polypeptides that include conformation-constraining groups which flank a protein--protein interaction site” (Virginia Commonwealth University, priority 1997, dated 1999).
# Where a SMILES comes first, the peptide text is derived from it.
# System: receptors of sweet tasting papillae
# Settings: comparison value
structure (smiles),measurement,value
COC(=O)[C@H](Cc1ccccc1)NC(=O)[C@@H](N)CC(=O)O [aspartame] (H-Asp-Phe-OMe),times sweeter than sugar,160 times
